The text below walks through data of patent US8877745B2, “CCR2 receptor antagonists, method for producing the same, and use thereof as medicaments” (Boehringer Ingelheim International GmbH, priority 2010, dated 2014).

T1 sequence (P41597 whole entry): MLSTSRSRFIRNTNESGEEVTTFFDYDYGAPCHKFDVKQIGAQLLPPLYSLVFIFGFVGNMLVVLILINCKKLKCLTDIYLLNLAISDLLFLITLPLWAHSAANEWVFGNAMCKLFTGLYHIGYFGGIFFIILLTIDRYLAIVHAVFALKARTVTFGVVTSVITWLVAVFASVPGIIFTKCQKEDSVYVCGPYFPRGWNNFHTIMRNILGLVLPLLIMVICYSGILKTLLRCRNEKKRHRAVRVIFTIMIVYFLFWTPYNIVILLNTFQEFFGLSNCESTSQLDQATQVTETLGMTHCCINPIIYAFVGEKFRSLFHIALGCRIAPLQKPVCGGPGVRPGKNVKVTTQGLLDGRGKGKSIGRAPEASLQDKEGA

This experiment addresses T1, CCR2 (Homo sapiens, UniProt P41597).
T1 construct: Membranes were prepared from THP-1 cells; endogenous in cells; host or cells: THP-1 (human acute monocytic leukaemia cells), membrane preparation
The experiment can be described thus: CCR2 receptor membrane binding assay ([125I]MCP-1, THP-1 cell membranes, SPA beads). To be noted: THP-1 membranes, [125I]MCP-1, bound radioactivity determined after 8 h; read-out: hKi. On the procedure: The above exemplary substances have been tested for binding to CCR2 using a binding assay as outlined herein below:
THP-1 cells (human acute monocytic leukaemia cells) were cultured under standardized conditions at 37° C. and 5% CO2 in a humidified incubator. THP-1 cells were cultivated in RPMI 1640 medium (Gibco 21875) containing 1% MEM-NEAA (Gibso 11140) 2 mM L-glutamine, 1.5 g/L sodium bicarbonate, 4.5 g/L glucose, 10 mM HEPES and 1.0 mM sodium pyruvate, 90%; 10% fetal calf serum (FCS Gibco 10500-064).
Membranes were prepared from THP-1 cells. THP-1 cells were centrifuged at 300×g at 4° C. for 10 min. The cell pellet was resuspended in Phosphate Buffer Saline (PBS, including 10 μM Pefabloc and a protease inhibitor mix ‘complete’, Boehringer Mannheim (1 tablet/50 ml)), to a concentration of […]. The membrane preparation was performed by disrupting the cells by nitrogen […] (at 50 bar, for 1 h) in a “Nitrogen Bombe” (Parr Instrument). Cell debris was removed by centrifugation (800×g at 4° C., 1 min). The supernatant was centrifuged at 80000×g, 4° C. for 30 min to sediment the cell membranes. Usually 50 mg of protein (Bradford assay) were yielded from 1×10E9 cells. The membranes were resuspended in 25 mM HEPES, 25 mM MgCl2, 1 mM CaCl2, 10% Glycerine for storage in aliquots at −80° C. in 25 mM HEPES, 25 mM MgCl2, 1 mM CaCl2, 10% Glycerine and stored at −80° C.
Receptor Membrane Binding Assay:
Perkin Elmer NEX 332 Jod 125 MCP-1, Stock: 2200 Ci/mmol solved in […] assay buffer, stored at −20° C. THP-1 membrane were adjusted with 25 mM HEPES, pH 7.2; 5 mM MgCl2; 0.5 mM CaCl2; 0.2% BSA assay buffer to a concentration of 2.5 μg/15 μl. Amersham Biosciences PVT-WGA Beads (RPNQ0001) were adjusted with assay buffer to a concentration of 0.24 mg/30 μl. For preparation of the membrane-bead-suspension membranes and beads were incubated for 30 min at RT under rotation (60 rpm) with a ratio of 1:2. Test compounds dissolved in 100% DMSO to a concentration of 10 mM and are further diluted with 100% DMSO to 1 mM. All additional compound dilutions were obtained with assay buffer, final 1% DMSO. Compounds, membrane-bead-suspension and [^125I]MCP-1 (ca. 25000 cpm/10 μl) were incubated. Bound radioactivity was determined by scintillation counter after 8 h. Determination of affinity of test compounds (dissociation constant hKi) is calculated by iterative fitting of experimental data using the “easy sys” program, which is based on law of mass action (Schittkowski K. (1994), Numerische Mathematik, Vol. 68, 129-142).
`Cc1cccc(C2CCN(c3ncnc(C(=O)N4CCC(N5CCC(N(C)S(C)(=O)=O)CC5)CC4)c3C)CC2)c1` [Example 30]: the Ki amounted to 1360 nM.

Consider `CO[C@@H]1COCC[C@@H]1NC1CCN(C(=O)c2ncnc(N3CCc4cc(C(F)(F)F)ccc4C3)c2C)CC1` [Example 69p], for which the Ki stood at 6 nM.

On to `Cc1c(C(=O)N2CCC(N3CCC(O)CC3)CC2)ncnc1N1CCc2ccc(C(F)(F)F)cc2C1` [Example 72], for which the Ki came out at 104 nM.

Turning to `COC1COCCC1NC1CCN(C(=O)c2ncnc(N3CCC(c4ccc(C(F)(F)F)cc4)CC3)c2C)CC1` (centres unmarked) [Example 41], the Ki was found to be 432 nM.

Consider `Cc1c(C(=O)N2CCC(N3CCC(N(C)S(C)(=O)=O)CC3)CC2)ncnc1N1CCC(c2cccc(C(F)(F)F)c2)CC1` [Example 20], for which the Ki was 480 nM.

On to `COC1COCCC1NC1CCN(C(=O)c2ncnc(N3CCCC(c4cccc(Cl)c4)C3)c2C)CC1` (centres unmarked) [Example 31], for which the Ki came out at 1710 nM.

For the molecule `CO[C@@H]1COCC[C@@H]1NC1CCN(C(=O)c2nc(C3CC3)nc(N3CCc4ccc(C(F)(F)F)cc4C3)c2C)CC1` [Example 69x], the Ki worked out at 0.7 nM.

In the case of `COC1COCCC1NC1CCN(C(=O)c2ncnc(N3CCC4CC4(c4ccc(Br)cc4)C3)c2C)CC1` (centres unmarked) [Example 62o], the Ki came to 1080 nM.

For the molecule `COC1COCCC1NC1CCN(C(=O)c2ncnc(N3CCN(c4ccc(C(F)(F)F)cc4)CC3)c2C)CC1` (centres unmarked) [Example 62p], the Ki was 119 nM.

`COC1COCCC1NC1CCN(C(=O)c2ncnc(N3CCN(c4ccc5c(c4)OCCO5)CC3)c2C)CC1` (centres unmarked) [Example 62ad]: the Ki is 336 nM.

Regarding `COC1COCCC1NC1CCN(C(=O)c2ncnc(N3CCC(c4cccc(C(F)(F)F)c4)CC3)c2C)CC1` (centres unmarked) [Example 42], the Ki worked out at 230 nM.

Regarding `CO[C@@H]1COCC[C@@H]1NC1CCN(C(=O)c2ncnc(N3COc4ccc(C(F)(F)F)cc4C3)c2C)CC1` [Example 69e], the Ki stood at 1 nM.

`Cc1c(C(=O)N2CCC(N3CCCC3)CC2)ncnc1N1CCc2ccc(C(F)(F)F)cc2C1` [Example 73]: the Ki was determined as 52 nM.

For `COC1COCCC1NC1CCN(C(=O)c2ncnc(N3CC4CC4(c4cccc(C(F)(F)F)c4)C3)c2C)CC1` (centres unmarked) [Example 62b], the Ki is 357 nM.

For the molecule `CO[C@@H]1COCC[C@@H]1NC1CCN(C(=O)c2ncnc(N3CCc4ccc(C)cc4C3)c2C)CC1` [Example 69f], the Ki was determined as 17 nM.

In the case of `COC1COCCC1NC1CCN(C(=O)c2ncnc(N3CCC(c4cccc(C(F)(F)F)c4)C3)c2C)CC1` (centres unmarked) [Example 52], the Ki stood at 270 nM.

Turning to `Cc1c(C(=O)N2CCC(N3CCOCC3)CC2)ncnc1N1CCc2ccc(C(F)(F)F)cc2C1` [Example 82], the Ki was 203 nM.

For the molecule `Cc1c(C(=O)N2CCC(N3CCC(N(C)S(C)(=O)=O)CC3)CC2)ncnc1N1CCC(c2ccc(Cl)cc2)C1` (centres unmarked) [Example 47], the Ki came out at 1100 nM.

On to `CO[C@H]1COCC[C@H]1NC1CCN(C(=O)c2ncnc(N3CCc4ccc(Br)cc4C3)c2C)CC1` [Example 69z], for which the Ki amounted to 13 nM.

Consider `COC1COCCC1NC1CCN(C(=O)c2ncnc(N3CCN(c4cccc(C)c4)CC3)c2C)CC1` (centres unmarked) [Example 62af], for which the Ki was found to be 257 nM.

For `COC1COCCC1NC1CCN(C(=O)c2ncnc(N3CCC4(CCc5ccccc54)CC3)c2C)CC1` (centres unmarked) [Example 62], the Ki came out at 590 nM.

For the molecule `COc1cc(N2CCN(c3ncnc(C(=O)N4CCC(NC5CCOCC5OC)CC4)c3C)CC2)cc(C(F)(F)F)c1` (centres unmarked) [Example 62ae], the Ki is 49 nM.

As for `Cc1c(C(=O)N2CCC(N3CCC(N(C)S(C)(=O)=O)CC3)CC2)ncnc1N1CCC(c2cccc(F)c2)CC1` [Example 22], the Ki was 3790 nM.

`COC1COCCC1NC1CCN(C(=O)c2ncnc(N3CCc4ccc(C(F)(F)F)cc4C3)c2C)CC1` (centres unmarked) [Example 60]: the Ki was 5 nM.

As to `COc1c(C(=O)N2CCC(N[C@@H]3CCOC[C@@H]3OC)CC2)ncnc1N1CCc2ccc(OC(F)(F)F)cc2C1` [Example 69c], the Ki was found to be 28 nM.

As for `Cc1c(C(=O)N2CCC(N3CCCCC3)CC2)ncnc1N1CCc2ccc(C(F)(F)F)cc2C1` [Example 80], the Ki was determined as 101 nM.

In the case of `COC1COCCC1NC1CCN(C(=O)c2ncnc(N3CCc4ccc(C)cc4C3)c2C)CC1` (centres unmarked) [Example 59], the Ki was determined as 42 nM.

Regarding `COC1COCCC1NC1CCN(C(=O)c2ncnc(N3CCN(c4ccc(Cl)cc4Cl)CC3)c2C)CC1` (centres unmarked) [Example 62ag], the Ki was found to be 40 nM.

Turning to `Cc1c(C(=O)N2CCN(C(C)C)CC2)ncnc1N1CCc2ccc(C(F)(F)F)cc2C1` [Example 71], the Ki is 2100 nM.

As for `COC1COCCC1NC1CCN(C(=O)c2ncnc(N3CCC4(CCc5cc(Br)ccc5O4)CC3)c2C)CC1` (centres unmarked) [Example 62ab], the Ki came out at 16 nM.

As to `COC1COCCC1NC1CCN(C(=O)c2ncnc(N3CCN(c4cc(F)cc(F)c4)CC3)c2C)CC1` (centres unmarked) [Example 62ak], the Ki is 145 nM.

For the molecule `COC1COCCC1NC1CCN(C(=O)c2ncnc(N3CCN(c4cc(Cl)cc(Cl)c4)CC3)c2C)CC1` (centres unmarked) [Example 62t], the Ki stood at 17 nM.

For `Cc1c(C(=O)N2CCC(N3CCC(N(C)S(C)(=O)=O)CC3)CC2)ncnc1N1CCC(c2ccccc2)CC1` [Example 28], the Ki worked out at 3680 nM.

For `COC1COCCC1NC1CCN(C(=O)c2ncnc(N3CCc4cccc(C(F)(F)F)c4C3)c2C)CC1` (centres unmarked) [Example 2], the Ki is 507 nM.

On to `COC1COCCC1NC1CCN(C(=O)c2ncnc(N3CCn4cc(C(F)(F)F)nc4C3)c2C)CC1` (centres unmarked) [Example 62ac], for which the Ki amounted to 1000 nM.

On to `COC1COCCC1NC1CCN(C(=O)c2ncnc(N3CCc4ccc(Cl)cc4C3)c2C)CC1` (centres unmarked) [Example 10], for which the Ki amounted to 14 nM.

As for `Cc1c(C(=O)N2CCC(N3CCC(N(C)S(C)(=O)=O)CC3)CC2)ncnc1-n1ccc2cc(C(F)(F)F)ccc21` [Example 69g], the Ki was 1300 nM.

With `COC1COCCC1NC1CCN(C(=O)c2ncnc(N3CCC4(CC3)OCc3ccccc34)c2C)CC1` (centres unmarked) [Example 19], the Ki was 3620 nM.

On to `COC1COCCC1NC1CCN(C(=O)c2ncnc(N3Cc4ccc(C(F)(F)F)cc4C3)c2C)CC1` (centres unmarked) [Example 43], for which the Ki was 49 nM.

Consider `COC1COCCC1NC1CCN(C(=O)c2ncnc(N3CCc4ccc(F)cc4C3)c2C)CC1` (centres unmarked) [Example 7], for which the Ki amounted to 27 nM.

As for `COC1COCCC1NC1CCN(C(=O)c2ncnc(N3CCN(c4cccc(Cl)c4Cl)CC3)c2C)CC1` (centres unmarked) [Example 62x], the Ki is 18 nM.

Consider `COc1c(C(=O)N2CCC(N[C@H]3CCOC[C@H]3OC)CC2)ncnc1N1CCc2ccc(OC(F)(F)F)cc2C1` [Example 69d], for which the Ki was determined as 11 nM.

For `Cc1c(C(=O)N2CCN(C)CC2)ncnc1N1CCc2ccc(C(F)(F)F)cc2C1` [Example 70], the Ki was 3560 nM.

With `COc1c(C(=O)N2CCC(N[C@H]3CCOC[C@H]3OC)CC2)ncnc1N1CCc2ccc(C(F)(F)F)cc2C1` [Example 69b], the Ki turned out to be 9 nM.
